Source: ChEMBL document CHEMBL5034039, “Discovery of Novel, Orally Bioavailable Pyrimidine Ether-Based Inhibitors of ELOVL1” (J Med Chem, 2021)

Legend:
[1] = Reduction in C26:0/C16:0 LPC level in ABCD1 knock out mouse CNS at 10 mg/kg, po qd and measured after 3 months relative to control; assay type: functional; parameters: scale not given: the % may be the effect or the level left; settings: 2190 h
[2] = Reduction in C26:0/C16:0 LPC level in ABCD1 knock out mouse CNS at 10 mg/kg, po qd and measured after 8 months relative to control; assay type: functional; parameters: scale not given: the % may be the effect or the level left; settings: 5840 h
[3] = molecular target: T1, Very long chain fatty acid elongase 1 (Homo sapiens, UniProt Q9BW60); test: Inhibition of ELOVL1 in HEK293 cells assessed as reduction of C26:0 lipo phosphatidyl choline synthesis; assay type: cell-based
T1 sequence (Q9BW60 whole entry): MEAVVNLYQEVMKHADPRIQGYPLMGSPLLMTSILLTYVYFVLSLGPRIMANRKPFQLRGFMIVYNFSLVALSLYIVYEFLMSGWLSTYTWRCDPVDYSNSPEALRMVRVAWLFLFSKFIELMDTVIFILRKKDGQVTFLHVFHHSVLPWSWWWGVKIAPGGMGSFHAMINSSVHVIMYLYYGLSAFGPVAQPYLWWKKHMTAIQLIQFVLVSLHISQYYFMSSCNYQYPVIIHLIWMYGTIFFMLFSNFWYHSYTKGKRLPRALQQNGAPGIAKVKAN

[4] = Lipophilicity, logD of the compound at pH 7.4; assay type: physicochemical; settings: buffer
[5] = Intrinsic clearance in rat hepatocytes assessed per million cells; assay type: ADME, cell-based, Hepatocyte; settings: read-out: CLH
[6] = molecular target: T1, Very long chain fatty acid elongase 1; test: Inhibition of ELOVL1 (unknown origin)

| Structure (SMILES) | Activity [1] | Activity [2] | IC50 [3] | logD [4] | hepatocyte CLint [5] | IC50 [6] |
| --- | --- | --- | --- | --- | --- | --- |
| O=C(Nc1ccn(-c2ccnc(F)c2)n1)C1(c2ccccc2F)CC1 | 34% | 65% | – | – | – | – |
| Fc1ccc(CCOc2cc(N3CCCCCC3)ncn2)cc1 | – | – | 230 nM | 5.3 | 273 µL/min/1e6 cells | – |
| c1ccc([C@H]2CN(c3cc(O[C@H]4C[C@@H](c5ncco5)C4)ncn3)CCO2)cc1 | – | – | 5 nM | 3.9 | 17 µL/min/1e6 cells | – |
| Cc1ccnn1CCCOc1cc(N2CCOC(c3ccnn3C)C2)ncn1 (stereo not given) | – | – | 140 nM | 2.1 | 23 µL/min/1e6 cells | – |
| Cc1ccnn1CCCOc1cc(N2C3COCC2C3)ncn1 | – | – | 230 nM | 1.3 | 40 µL/min/1e6 cells | – |
| Fc1ccc(CCOc2cc(N3CCOCC3)ncn2)cc1 | – | – | 12 nM | 3.3 | 137 µL/min/1e6 cells | – |
| Cc1ccnn1CCCOc1cc(N2CCOC3(COC3)C2)ncn1 | – | – | 120 nM | 1.6 | 13 µL/min/1e6 cells | – |
| Fc1ccn([C@H]2C[C@H](c3cc(O[C@H]4C[C@@H](n5cccn5)C4)ncn3)C2)n1 | – | – | 0.3 nM | 3.1 | 8.4 µL/min/1e6 cells | – |
| Cc1ccnn1CCCOc1cc(N2CCOC(c3ccccc3)C2)ncn1 (stereo not given) | – | – | 7 nM | 3.8 | 111 µL/min/1e6 cells | – |
| Fc1ccc(CCOc2cc(N3CCCC3)ncn2)cc1 | – | – | 430 nM | 3.9 | 273 µL/min/1e6 cells | – |
| Fc1ccc(CCOc2cc(N3CCCOCC3)ncn2)cc1 | – | – | 3 nM | 3.4 | 144 µL/min/1e6 cells | – |
| c1ccc([C@H]2CN(c3cc(O[C@H]4C[C@@H](n5ccnn5)C4)ncn3)CCO2)cc1 | – | – | 9 nM | 2.9 | 14 µL/min/1e6 cells | – |
| c1cnn([C@H]2C[C@@H](Oc3cc([C@H]4C[C@H](n5cccn5)C4)ncn3)C2)c1 | – | – | 10 nM | 2.6 | 5.6 µL/min/1e6 cells | – |
| Fc1ccc(CCOc2ccc(-c3cccnc3)cn2)cc1 | – | – | 6700 nM | – | – | 21000 nM |
